The NIST ThermoML archive (doi:10.1021/je100508y)
Numbers after ± are expanded uncertainties.

Legend:
[1] = refractive index (Na D-line) (dimensionless); conditions: 298.15 K; 101.33 kPa; Liquid; Standard Abbe refractometry
[2] = 298.15 K; 101.33 kPa; Liquid

| refractive index [1] | mass density [2] [kg/m3] | Compound |
| --- | --- | --- |
| 1.49774 ± 0.00068 | 873.57 ± 0.17 | c1ccccc1 [benzene] |
| 1.4791 ± 0.0007 | 1237.23 ± 1.8 | CCOS(=O)(=O)[O-].CCn1cc[n+](C)c1 [1-ethyl-3-methylimidazolium ethyl sulfate] |
| 1.45598 ± 0.0007 | 831.47 ± 0.73 | C1CCCCCCC1 [cyclooctane] |
| 1.42062 ± 0.00068 | 765.02 ± 0.25 | CC1CCCCC1 [methylcyclohexane] |
| 1.4236 ± 0.00068 | 773.8 ± 0.25 | C1CCCCC1 [cyclohexane] |
